Molecular target: T1, ComFB (FB; Bsu FB) (Bacillus subtilis, UniProt P39146)
T1 sequence (P39146 1-98): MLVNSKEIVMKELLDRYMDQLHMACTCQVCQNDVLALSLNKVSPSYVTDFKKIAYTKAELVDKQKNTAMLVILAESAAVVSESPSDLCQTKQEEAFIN
Test: isothermal titration calorimetry, one-site model
Format: binding

SMILES	Kd
Nc1ncnc2c1ncn2[C@@H]1O[C@@H]2COP(=O)(O)O[C@H]3[C@@H](O)[C@H](n4cnc5c(N)ncnc54)O[C@@H]3COP(=O)(O)O[C@H]2[C@H]1O [c-di-AMP]	69.1 ± 139 µM
Nc1nc2c(ncn2[C@@H]2O[C@@H]3CO[P@](=O)(O)O[C@H]4[C@@H](O)[C@H](n5cnc6c(=O)[nH]c(N)nc65)O[C@@H]4CO[P@](=O)(O)O[C@H]3[C@H]2O)c(=O)[nH]1 [c-di-GMP]	0.14 ± 0.05 µM

— paper PMC12265714 (bioRxiv, 2025)
